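These data come from cells grown in 96-well plates and exposed to compound for 48 hours at five concentrations. Here, GI50 denotes the concentration required for 50% inhibition of growth.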 Active and inactive are the calls of the source. Cut-off read from the data, not from the text of the source: active = GI50 up to about 1.1 µM and inactive = higher.
Key:
Experiment in all cases: growth of human tumour cells (NCI), 48 h
DMS-273 = system: DMS-273
SK-MEL-2 = system: SK-MEL-2
MOLT-4 = system: MOLT-4
M19-MEL = system: M19-MEL
HOP-92 = system: HOP-92
NCI-H23 = system: NCI-H23
U-251 = system: U-251
SW-620 = system: SW-620
SK-MEL-28 = system: SK-MEL-28
XF498 = system: XF498
SNB-75 = system: SNB-75
SF-268 = system: SF-268
OVCAR-8 = system: OVCAR-8
SK-OV-3 = system: SK-OV-3
LXFL 529 = system: LXFL 529
EKVX = system: EKVX
SF-539 = system: SF-539
ACHN = system: ACHN
SF-295 = system: SF-295
HOP-18 = system: HOP-18
KM-20L2 = system: KM-20L2
HOP-62 = system: HOP-62
KM12 = system: KM12
DLD-1 = system: DLD-1
NCI-H460 = system: NCI-H460
COLO 205 = system: COLO 205
OVCAR-5 = system: OVCAR-5
Malme-3M = system: Malme-3M
UACC-257 = system: UACC-257
SN12C = system: SN12C
NCI-H226 = system: NCI-H226
SR = system: SR
A549 = system: A549
RPMI-8226 = system: RPMI-8226
CAKI-1 = system: CAKI-1
SNB-78 = system: SNB-78
HT-29 = system: HT-29
CCRF-CEM = system: CCRF-CEM
RXF 631 = system: RXF 631
K562 = system: K562
OVCAR-3 = system: OVCAR-3
HCT-116 = system: HCT-116
HCC 2998 = system: HCC 2998
786-0 = system: 786-0
IGROV-1 = system: IGROV-1
M14 = system: M14
UACC-62 = system: UACC-62
SK-MEL-5 = system: SK-MEL-5
SNB-19 = system: SNB-19
LOX IMVI = system: LOX IMVI
HL-60 = system: HL-60
RXF 393 = system: RXF 393
TK-10 = system: TK-10
OVCAR-4 = system: OVCAR-4
NCI-H522 = system: NCI-H522
UO-31 = system: UO-31
DMS-114 = system: DMS-114

Measured: GI50

CC1(C2CCC3(C)OC3C2)CO1 (configuration not stated)
inactive: DMS-273 > 100 µM | SK-MEL-2 > 100 µM | MOLT-4 > 100 µM | M19-MEL > 100 µM | HOP-92 > 100 µM | NCI-H23 > 100 µM | U-251 > 100 µM | SW-620 > 100 µM | SK-MEL-28 > 100 µM | XF498 > 100 µM | SNB-75 > 100 µM | SF-268 > 100 µM | OVCAR-8 > 100 µM | SK-OV-3 > 100 µM | LXFL 529 > 100 µM | EKVX > 100 µM | SF-539 > 100 µM | ACHN > 100 µM | SF-295 > 100 µM | HOP-18 > 100 µM | KM-20L2 > 100 µM | HOP-62 > 100 µM | KM12 > 100 µM | DLD-1 > 100 µM | NCI-H460 > 100 µM | COLO 205 > 100 µM | OVCAR-5 > 100 µM | Malme-3M > 100 µM | UACC-257 > 100 µM | SN12C > 100 µM | NCI-H226 > 100 µM | SR > 100 µM | A549 > 100 µM | RPMI-8226 > 100 µM | CAKI-1 > 100 µM | SNB-78 > 100 µM | HT-29 > 100 µM | CCRF-CEM > 100 µM | RXF 631 > 100 µM | K562 > 100 µM | OVCAR-3 > 100 µM | HCT-116 > 100 µM | HCC 2998 > 100 µM | 786-0 > 100 µM | IGROV-1 > 100 µM | M14 > 100 µM | UACC-62 > 100 µM | SK-MEL-5 > 100 µM | SNB-19 > 100 µM | LOX IMVI > 100 µM | HL-60 > 100 µM | RXF 393 > 100 µM | TK-10 > 100 µM | OVCAR-4 > 100 µM | NCI-H522 > 100 µM | UO-31 > 100 µM | DMS-114 > 100 µM
